# Test results published in patent US11912706B2, “Crystal forms of a POL1 inhibitor” (PIMERA, INC., priority 2017, dated 2024).
# Assays:
# Assay type in all cases: physicochemical
# [1] = Rapid solvent solubility screen; conditions: thermodynamic from solid
# Protocol: Thirteen solvents were chosen for a rapid solvent solubility screen (See, Table 1). 10 mg of multiphasic Compound (I) prepared according to Example 1 was placed in each of 13 vials and 5 volume aliquots of the appropriate solvent systems were added to each vial.
# Between each addition, the mixture was checked for dissolution and if no dissolution was apparent, the mixture was heated to 40° C. and checked again. This procedure was continued until dissolution was observed or until 100 volumes of solvent had been added.
# [2] = Gravimetric Vapor Sorption (GVS); conditions: up to 90% relative humidity (RH)
# Protocol: Approximately 10-20 mg of sample was placed into a mesh vapor sorption balance pan and loaded into an IGAsorp Moisture Sorption Analyzer balance by Hiden Analytical.
# The sample was subjected to a ramping profile from 40% to 90% relative humidity (RH) at 10% increments, maintaining the sample at each step until a stable weight had been achieved (98% step completion). After completion of the sorption cycle, the sample was dried using the same procedure to 0% RH, and finally taken back to the starting point of 40% RH. The weight change during the sorption/desorption cycles was plotted, allowing for the hygroscopic nature of the sample to be determined.
# [3] = Further stability studies of Form 1 (2 and 4 weeks; PXRD, NMR, HPLC)
# Protocol: 10 mg of Form 1 was weighed out into each of 12 vials. […] vials were placed in each storage condition of: (1) 40° C. with an open cap; (2) 75% RH with an open cap; (3) 50° C. with a closed cap; and (4) room temperature with a closed cap.
# Two (2) vials were extracted at each time point of 2 and 4 weeks and PXRD, NMR and HPLC analysis was performed.
# [4] = 7 day stability test of crystal forms (PXRD post storage); conditions: 7-day storage
# Protocol: 10 mg of Forms 1, 2, 3, 4 and 5 were weighed out into separate vials.
# […] After completion, PXRD analysis was performed on each of these samples.
# [5] = Competitive slurrying of Form 1 and Form 5; conditions: dichloromethane, heptane, methanol; ambient, 60° C. or 35° C.; 24 hours
# Protocol: Saturated solutions of Compound (I) in multiphasic form were created in two solutions each dichloromethane, heptane and methanol.
# 10 mg of Form 1 and Form 5 were added to each vial. […] was stirred at ambient conditions for a period of 24 hours, while the other heptane and methanol vials were stirred at 60° C. for 24 hours.
# The remaining dichloromethane vial was stirred at 35° C. for 24 hours. The resulting material was analyzed by PXRD, before being dried with a vacuum pump overnight to dry before DSC analysis of samples.
# [6] = ambient conditions (closed vial)
compound,measurement,setting,value
"CNC(=O)c1cc2ccc(N3CCCN(C)CC3)nc2n2c1nc1ccccc12 [Compound (I), N-methyl-2-(4-methyl-1,4-diazepan-1-yl)benzo[4,5]imidazo[1,2-a][1,8]naphthyridine-6-carbaxomide]",solubility,"[1]; acetonitrile, 40 °C, organic solvent or mixture",< 10000 µg/mL
same,solubility,"[1]; dichloromethane, organic solvent or mixture",200000 µg/mL
same,solubility,"[1]; dimethylformamide, 40 °C, organic solvent or mixture",< 10000 µg/mL
same,solubility,"[1]; ethanol, 40 °C, organic solvent or mixture",< 10000 µg/mL
same,solubility,"[1]; ethyl acetate, 40 °C, organic solvent or mixture",< 10000 µg/mL
same,solubility,"[1]; heptane, 40 °C, organic solvent or mixture",< 10000 µg/mL
same,solubility,"[1]; majority of the thirteen solvents assessed, 40 °C, organic solvent or mixture, majority of solvents assessed",< 10000 µg/mL
same,solubility,"[1]; methanol, organic solvent or mixture",12500 µg/mL
same,solubility,"[1]; organic solvent or mixture, Acetone, up to 100 volumes, heated to 40° C. if no dissolution",< 10000 µg/mL
same,solubility,"[1]; propan-2-ol, 40 °C, organic solvent or mixture",< 10000 µg/mL
same,solubility,"[1]; t-butylmethyl ether, 40 °C, organic solvent or mixture",< 10000 µg/mL
same,solubility,"[1]; tetrahydrofuran, 40 °C, organic solvent or mixture",< 10000 µg/mL
same,solubility,"[1]; toluene, 40 °C, organic solvent or mixture",< 10000 µg/mL
same,solubility,"[1]; water, 40 °C",< 10000 µg/mL
same,hygroscopic nature (GVS),[2],non-hygroscopic
same,mass uptake (GVS),[2],0.8%
"CNC(=O)c1cc2ccc(N3CCCN(C)CC3)nc2n2c1nc1ccccc12 [Form 1, N-methyl-2-(4-methyl-1,4-diazepan-1-yl)benzo[4,5]imidazo[1,2-a][1,8]naphthyridine-6-carbaxomide]",Structural integrity post stability testing (NMR),"[3]; 2 and 4 weeks, 40° C./75% RH, 50° C., room temperature",maintains its structural integrity and does not degrade
same,Form stability after storage (PXRD),"[3]; 2 weeks and 4 weeks, 40° C./75% RH, 50° C. and RT",stable and maintains its form
same,% Purity (HPLC) post stability studies,"[3]; 40° C./75% Relative Humidity, 2 weeks",99.3%
same,% Purity (HPLC) post stability studies,"[3]; 40° C./75% Relative Humidity, 4 weeks",99.6%
same,% Purity (HPLC) post stability studies,"[3]; 50° C./Ambient % RH, 2 weeks",99.4%
same,% Purity (HPLC) post stability studies,"[3]; 50° C./Ambient % RH, 4 weeks",99.7%
same,% Purity (HPLC) post stability studies,"[3]; Room Temperature, 2 weeks",99.2%
same,% Purity (HPLC) post stability studies,"[3]; Room Temperature, 4 weeks",99.1%
same,Form stability after storage (PXRD),[4]; 40° C./75% RH (closed vial),stable and maintains its form
same,Form stability after storage (PXRD),[4]; [6],stable and maintains its form
"CNC(=O)c1cc2ccc(N3CCCN(C)CC3)nc2n2c1nc1ccccc12 [Form 2, N-methyl-2-(4-methyl-1,4-diazepan-1-yl)benzo[4,5]imidazo[1,2-a][1,8]naphthyridine-6-carbaxomide]",Form stability after storage (PXRD),[4]; 40° C./75% RH (closed vial),transitions to Form 1
same,Form stability after storage (PXRD),[4]; [6],stable and maintains its form
"CNC(=O)c1cc2ccc(N3CCCN(C)CC3)nc2n2c1nc1ccccc12 [Form 3, N-methyl-2-(4-methyl-1,4-diazepan-1-yl)benzo[4,5]imidazo[1,2-a][1,8]naphthyridine-6-carbaxomide]",Form stability after storage (PXRD),[4]; 40° C./75% RH (closed vial),transitions to Form 1
same,Form stability after storage (PXRD),[4]; [6],stable and maintains its form
"CNC(=O)c1cc2ccc(N3CCCN(C)CC3)nc2n2c1nc1ccccc12 [Form 4, N-methyl-2-(4-methyl-1,4-diazepan-1-yl)benzo[4,5]imidazo[1,2-a][1,8]naphthyridine-6-carbaxomide]",Form stability after storage (PXRD),[4]; 40° C./75% RH (closed vial),transitions to Form 1
same,Form stability after storage (PXRD),[4]; [6],stable and maintains its form
"CNC(=O)c1cc2ccc(N3CCCN(C)CC3)nc2n2c1nc1ccccc12 [Form 5, N-methyl-2-(4-methyl-1,4-diazepan-1-yl)benzo[4,5]imidazo[1,2-a][1,8]naphthyridine-6-carbaxomide]",Form stability after storage (PXRD),[4]; 40° C./75% RH (closed vial),stable and maintains its form
same,Form stability after storage (PXRD),[4]; [6],stable and maintains its form
same,Form transition in competitive slurry (PXRD of damp slurry residue),[5],transition from Form 5 towards Form 1
